Laboratory results: patent US10308592B2 (priority 2014, dated 2019)
Where two headings read alike, the source gives them in different places.

Columns and labels:
rat [1] = conditions: in vivo
rat [2] = conditions: in vivo; cited from earlier work
mouse [3] = conditions: in vivo, inhaled or intranasal
mouse [4] = conditions: in vivo; cited from earlier work
rats = conditions: rat, in vivo, po, 300 mg/kg
in vivo = conditions: rat, po, 300 mg/kg
[5] = male, Sprague-Dawley, rat
male Sprague-Dawley rats = conditions: rat, in vivo

COC(F)(F)C(F)C(F)(F)F (centres unmarked) [301-monohydride, CF3CFHCF2OCH3]
LC50 (LD50) data - inhalation (rat [1]): LC50 >10,000 ppm
NOAEL/NOEL data: NOAEL by inference (rat [1]; inhaled or intranasal): <10,000 ppm (rat

FC(F)C(F)(F)OCC(F)(F)F [AE-3000, CF3CH2OCF2CF2H]
LC50 (LD50) data - inhalation (rat [2]): LC50 3010 ppm

COC(F)(F)C(C(F)(F)F)C(F)(F)F [OIME, (CF3)2CHCF2OCH3]
NOAEL/NOEL data: NOAEL by inference (mouse [3]): <660 ppm (mouse,
LC50 (LD50) data - inhalation (mouse [4]): LC50 660 ppm

FC(F)C(F)(F)COC(F)(F)C(F)N1C(F)(F)C(F)(F)OC(F)(F)C1(F)F (centres unmarked) [Example 2, 2,2,3,3,5,5,6,6-octafluoro-4-[1,2,2-trifluoro-2-(2,2,3,3-tetrafluoropropoxy)ethyl]morpholine]
Adverse clinical observations during post dose recovery period (rats): No adverse clinical observations were noted
Necropsy results (rats): normal for all animals
LD50 (in vivo): > 300 mg/kg

CC(OC(F)(F)C(F)C(F)(F)F)C(F)(F)C(F)C(F)(F)F (centres unmarked) [Novec 7600, CF3CFHCF2CH(CH3)OCF2CFHCF3]
NOAEL/NOEL data: NOEL (rat [1]; inhaled or intranasal): 29d) <500 ppm

COC(F)(F)C(F)N1C(F)(F)C(F)(F)OC(F)(F)C1(F)F (centres unmarked) [Example 1, 2,2,3,3,5,5,6,6-octafluoro-4-(1,2,2-trifluoro-2-methoxy-ethyl)morpholine]
chromatographic logP (physchem): 4.46
Acute Vapor Hazard Ratio [5]: 4
LC50 (LD50) data - inhalation (male Sprague-Dawley rats; male, Sprague-Dawley): LC50 >5000 ppm
4 hour LC-50 (male Sprague-Dawley rats): > 5000 ppm (v/v)
Clinical observations, body or organ weight effects (male Sprague-Dawley rats): no significant clinical observations or body or organ weight effects were noted
Survival and appearance during 14 day post dose recovery period (male Sprague-Dawley rats): All animals survived and appeared normal
NOAEL (No Observable Adverse Effect Level) (male Sprague-Dawley rats; inhaled or intranasal): > 5000 ppm (v/v)
NOAEL/NOEL data: NOEL (male Sprague-Dawley rats; inhaled or intranasal): NOEL >5000 ppm
